# Data published in patent US20230274811A1, “METHODS OF MAKING PROSTATE CANCER TREATMENT DECISIONS” (Progenics Pharmaceuticals, Inc., priority 2020, published 2023).
# System: biochemically recurrent prostate cancer
# Test: CONDOR: 18F-DCFPyL PET/CT correct localization rate, detection rate and PPV vs composite standard of truth
# Format: in vivo, men
# Conditions: for PPV % (95% CI): patient level
# Excerpt: 1. Correct Localization Rate (CLR), defined as percentage of subjects with a one-to-one correspondence between localization of at least one lesion identified on ^18F-DCFPyL PET/CT imaging and the composite truth standard, defined as either evaluable histopathology, informative correlative imaging, or PSA response after radiation therapy.
# Men ≥18 years of age with a rising PSA after definitive PCa therapy and negative or equivocal imaging were enrolled. […] The primary endpoint of this study was the correct localization rate (CLR). CLR is defined as the percentage of patients with a one-to-one correspondence between localization of at least one lesion identified by ^18F-DCFPyL PET/CT and a composite standard of truth (SOT). SOT was determined by two central readers and included either histopathology or another standard imaging modality (i.e., fluciclovine-PET/CT, CT/MRI, bone scan) or alternatively, by a post-treatment PSA change for irradiated lesions.
# Methods: Men ≥18 years—with rising PSA after definitive therapy and negative or equivocal standard of care imaging (e.g., CT/MRI, bone scintigraphy) were enrolled. A single 9 mCi (333 MBq)±20% dose of PyL was injected, followed by PET/CT 1-2 hours later. Primary endpoint was correct localization rate (CLR), defined as percentage of pts with a 1:1 correspondence between at least one lesion identified by PyL-PET/CT and the composite standard of truth: pathology, correlative imaging, or PSA response. […] The secondary endpoint, impact of PyL-PET/CT on clinical management of pts was based on the treating physician's documented clinical plans before and after PyL-PET/CT.
# Men with a PSA ≥0.2 ng/mL after surgery or ≥2 ng/mL above the nadir after radiation therapy were eligible for enrollment. The primary endpoint was the correct localization rate (CLR) defined as positive predictive value with an additional requirement of anatomical lesion colocalization between ^18F-DCFPyL-PET/CT and a composite standard of truth (SOT). The SOT consisted of, in descending priority: 1) histopathology, 2) correlative imaging findings determined by two central readers, or 3) post-radiation PSA response. […] The impact of ^18F-DCFPyL-PET/CT as defined by change in management intent, and safety were evaluated as secondary endpoints.
# Patients voided prior to imaging, and PET and non-contrast CT images were acquired from the mid-thigh through the skull vertex. All ^18F-DCFPyL-PET/CT scans were submitted to the central imaging core laboratory for assessment. Patients with positive ^18F-DCFPyL-PET/CT scans based on local interpretation were scheduled for post-^18F-DCFPyL-PET/CT follow-up to verify suspected lesion(s) based on a composite standard of truth (SOT). (FIG. 16)
# Because of the expected absence of an amenable lesion for histologic verification in all patients, a composite SOT was employed based on assessment performed or initiated within 60 days following ^18F-DCFPyL-PET/CT. These reference standards were defined (in descending priority) as (1) evaluable histopathology results from prostatectomy, salvage pelvic lymph node dissection or biopsy; (2) imaging findings using ^18F-fluciclovine or ^11C-choline PET, or focused MRI or CT; or (3) if neither of the above was available or informative, confirmed PSA response up to 9 months post-radiation initiation (with no concomitant ADT) of all PET-positive foci. PSA response was defined as PSA decline by ≥50% from baseline that was confirmed on repeat measurement within 4 weeks, based on central laboratory results.
# A central imaging core laboratory was employed to independently manage image handling, reader training, reader sessions and data collection. […] The readers had no access to any clinical information, including PSA values or other imaging available for a patient. […]
# [1] = SOT Correlative imaging n=100, Reader 3
# [2] = SOT Histopathology n=31, Reader 1
# [3] = SOT Histopathology n=31, Reader 2
# [4] = SOT Histopathology n=31, Reader 3
# [5] = SOT PET-Fluciclovine n=71, Reader 1
# [6] = SOT PET-Fluciclovine n=71, Reader 2
# [7] = SOT PET-Fluciclovine n=71, Reader 3
structure (smiles),measurement,setting,value
"O=C(O)CC[C@H](NC(=O)N[C@@H](CCCCNC(=O)c1ccc([18F])nc1)C(=O)O)C(=O)O [18F-DCFPyL, 2-(3-{1-carboxy-5-[(6-[^18F]fluoro-pyridine-3-carbonyl)-amino]-pentyl}ureido)-pentanedioic acid]",CLR (TP/TP + FP),[1],(86.1%)
same,Negative PyL Scan,[1],(23.0%)
same,PPV (TP/TP + FP),[1],(87.0%)
same,Positive PyL Scan,[1],(77.0%)
same,CLR (TP/TP + FP),[2],(78.6%)
same,Negative PyL Scan,[2],(6.5%)
same,PPV (TP/TP + FP),[2],(93.1%)
same,Positive PyL Scan,[2],(93.5%)
same,CLR (TP/TP + FP),[3],(82.8%)
same,Negative PyL Scan,[3],(3.2%)
same,PPV (TP/TP + FP),[3],(93.3%)
same,Positive PyL Scan,[3],(96.8%)
same,CLR (TP/TP + FP),[4],(80.8%)
same,Negative PyL Scan,[4],(9.7%)
same,PPV (TP/TP + FP),[4],(92.9%)
same,Positive PyL Scan,[4],(90.3%)
same,CLR (TP/TP + FP),"SOT MRI n=23, Reader 1",(80.0%)
same,Negative PyL Scan,"SOT MRI n=23, Reader 1",(30.4%)
same,Positive PyL Scan,"SOT MRI n=23, Reader 1",(69.6%)
same,CLR (TP/TP + FP),"SOT MRI n=23, Reader 2",(86.7%)
same,Negative PyL Scan,"SOT MRI n=23, Reader 2",(30.4%)
same,Positive PyL Scan,"SOT MRI n=23, Reader 2",(69.6%)
same,CLR (TP/TP + FP),"SOT MRI n=23, Reader 3",(86.7%)
same,Negative PyL Scan,"SOT MRI n=23, Reader 3",(30.4%)
same,Positive PyL Scan,"SOT MRI n=23, Reader 3",(69.6%)
same,CLR (TP/TP + FP),[5],(90.9%)
same,Negative PyL Scan,[5],(14.1%)
same,Positive PyL Scan,[5],(85.9%)
same,CLR (TP/TP + FP),[6],(90.0%)
same,Negative PyL Scan,[6],(23.9%)
same,Positive PyL Scan,[6],(76.1%)
same,CLR (TP/TP + FP),[7],(86.8%)
same,Negative PyL Scan,[7],(19.7%)
same,Positive PyL Scan,[7],(80.3%)
same,CLR (TP/TP + FP),"SOT PSA response n=1, Reader 1",(100%)
same,Negative PyL Scan,"SOT PSA response n=1, Reader 1",(0.0%)
same,PPV (TP/TP + FP),"SOT PSA response n=1, Reader 1",(100%)
same,Positive PyL Scan,"SOT PSA response n=1, Reader 1",(100%)
same,CLR (TP/TP + FP),"SOT PSA response n=1, Reader 2",(100%)
same,Negative PyL Scan,"SOT PSA response n=1, Reader 2",(0.0%)
same,PPV (TP/TP + FP),"SOT PSA response n=1, Reader 2",(100%)
same,Positive PyL Scan,"SOT PSA response n=1, Reader 2",(100%)
same,CLR (TP/TP + FP),"SOT PSA response n=1, Reader 3",(100%)
same,Negative PyL Scan,"SOT PSA response n=1, Reader 3",(0.0%)
same,PPV (TP/TP + FP),"SOT PSA response n=1, Reader 3",(100%)
same,Positive PyL Scan,"SOT PSA response n=1, Reader 3",(100%)
same,CLR (TP/TP + FP),"all patients n=208, Reader 1",(85.6%)
same,Negative PyL Scan,"all patients n=208, Reader 1",(34.1%)
same,Positive PyL Scan,"all patients n=208, Reader 1",(65.9%)
same,CLR (TP/TP + FP),"all patients n=208, Reader 2",(87.0%)
same,Negative PyL Scan,"all patients n=208, Reader 2",(40.4%)
same,Positive PyL Scan,"all patients n=208, Reader 2",(59.6%)
same,CLR (TP/TP + FP),"all patients n=208, Reader 3",(84.8%)
same,Negative PyL Scan,"all patients n=208, Reader 3",(40.9%)
same,Positive PyL Scan,"all patients n=208, Reader 3",(59.1%)
same,lesion detection rate,baseline PSA <0.5 ng/mL,36.2%
same,median CLR,baseline PSA <0.5 ng/mL,73.3%
same,lesion detection rate,baseline PSA ≥5 ng/mL,96.7%
same,median CLR,baseline PSA ≥5 ng/mL,96.4%
same,PPV % (95% CI),CONDOR Reader 4,90%
same,PPV % (95% CI),CONDOR Reader 5,91%
same,PPV % (95% CI),CONDOR Reader 6,89%
same,CLR,patients with PSA 0.2 to <2.0 ng/mL,> 73%
same,"PET/CT finding, case study 2","person, PSA 1.27 ng/mL, confirmed by contrast-MRI",lumbar spine metastasis
same,"PET/CT finding, case study 1","person, PSA 1.92 ng/mL, confirmed by pathology",L common iliac and multiple retroperitoneal lymph node lesions
same,"PET/CT finding, case study 3","person, PSA 1.78, confirmed by biopsy",a thoracic spine lesion
